In patent publication US6844353B2, “Fungicidal properties of sampangine and its analogs to agriculturally important fungal plant pathogens” (The United States of America as represented by the …, priority 2003, dated 2005):
Read-outs that look alike come from different tables or passages of the source.

Experiments:
C. gloeosporioides = assay: 96-well microtiter plate assay, fungal growth inhibition; format: cell-based, Colletotrichum gloeosporioides; conditions: Colletotrichum gloeosporioides, C. gloeosporioides, read-out: Percent inhibition−Percent Stimulation±SEM
C. fragariae = assay: as above; format: cell-based, Colletotrichum fragariae; conditions: Colletotrichum fragariae, C. fragariae, read-out: Percent inhibition−Percent Stimulation±SEM
F. oxysporum = assay: as above; format: cell-based, Fusarium oxysporum; conditions: Fusarium oxysporum, F. oxysporum, read-out: Percent inhibition−Percent Stimulation±SEM
How it was run: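 Conidial suspensions (1.0×10^6 conidia/mL stock, from 7-10 day PDA cultures) were challenged with compounds at final 0.3, 3.0 and 30.0 μM, in duplicate. Plates were incubated at 24±1° C. with a 12 hour photoperiod, and growth was read as absorbance at 620 nm at 46 and 72 hours.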

[1] = system: C. fragariae isolate CF-75; assay: Detached strawberry leaf assay; format: in vivo, Colletotrichum fragariae; conditions: detached strawberry leaves (cultivar Chandler), five days after application
Source text: Strawberry plants of the cultivar Chandler were maintained in a warm greenhouse under conditions suitable for optimum vegetative growth. The youngest fully expanded leaf with the entire petiole from each plant was collected. The petiole of each leaf was inserted into a small test tube (10×4 mm) and filled with sterile distilled water. The left leaflet of each leaf was inoculated with C. fragariae isolate CF-75 (1.5×10^6 conidia/ml) using a hand pump sprayer. The inoculated leaves were placed in a dew chamber and incubated overnight at 30° C. and 100% relative humidity, removed from the dew chamber and allowed to dry. The test compound was applied using a chromatography sprayer until the upper surface of each leaflet was coated. After allowing the leaves to air dry for 2 hours, the right leaflet of each leaf was inoculated with C. fragariae isolate CF-75. The leaves were incubated in the dew chamber at 30° C. and 100% relative humidity for 48 hours. The leaves were then removed from the dew chamber and held in a moist chamber for 3 days (total of five days since test compounds were applied). The number of lesions on each leaflet were then counted.

C. acutatum = assay: 96-well microtiter plate assay, fungal growth inhibition; format: cell-based, Colletotrichum acutatum; conditions: Colletotrichum acutatum, C. acutatum, read-out: Percent inhibition−Percent Stimulation±SEM
B. cinerea = assay: as above; format: cell-based, Botrytis cinerea; conditions: Botrytis cinerea, B. cinerea, read-out: Percent inhibition−Percent Stimulation±SEM

O=C1c2ccccc2-c2nccc3ccnc1c23 [Sampangine]
inhibition at 0.3 µM (C. gloeosporioides; 48 hrs): 63.8 ± 8.6% | inhibition at 0.3 µM (C. gloeosporioides; 72 hrs): 32.9 ± 8.3% | inhibition at 3 µM (C. gloeosporioides; 48 hrs): 98.3 ± 0.6% | inhibition at 3 µM (C. gloeosporioides; 72 hrs): 98.8 ± 0.4% | inhibition at 30 µM (C. gloeosporioides; 48 hrs): 99.2 ± 0.8% | inhibition at 30 µM (C. gloeosporioides; 72 hrs): 99.7 ± 0.4% | inhibition at 0.3 µM (C. fragariae; 48 hrs): 55.7 ± 4.5% | inhibition at 0.3 µM (C. fragariae; 72 hrs): 32.6 ± 5% | inhibition at 3 µM (C. fragariae; 48 hrs): 96.9 ± 0.8% | inhibition at 3 µM (C. fragariae; 72 hrs): 96.8 ± 0.4% | inhibition at 30 µM (C. fragariae; 48 hrs): 99.6 ± 0.9% | inhibition at 30 µM (C. fragariae; 72 hrs): 100 ± 0.4% | inhibition at 0.3 µM (F. oxysporum; 48 hrs): 14.7 ± 4.4% | inhibition at 0.3 µM (F. oxysporum; 72 hrs): 4.9 ± 2.3% | inhibition at 3 µM (F. oxysporum; 48 hrs): 86.6 ± 2.8% | inhibition at 3 µM (F. oxysporum; 72 hrs): 42.9 ± 3.1% | inhibition at 30 µM (F. oxysporum; 48 hrs): 100 ± 0.4% | inhibition at 30 µM (F. oxysporum; 72 hrs): 100 ± 0.4% | Disease severity scores (# disease lesions) ([1]; Concentration 625 (unit not given)): 8.31 | Disease severity scores (# disease lesions) ([1]; Concentration 1250 (unit not given)): 1.26 | Disease severity scores (# disease lesions) ([1]; Concentration 2500 (unit not given)): 0.80 | inhibition at 0.3 µM (C. acutatum; 48 hrs): 13.6 ± 5.8% | inhibition at 0.3 µM (C. acutatum; 72 hrs): 6 ± 5.1% | inhibition at 3 µM (C. acutatum; 48 hrs): 96.8 ± 0.5% | inhibition at 3 µM (C. acutatum; 72 hrs): -6.2 ± 3.8% | inhibition at 30 µM (C. acutatum; 48 hrs): 100 ± 0.6% | inhibition at 30 µM (C. acutatum; 72 hrs): 100 ± 0.2% | inhibition at 0.3 µM (B. cinerea; 48 hrs): 27.2 ± 18.6% | inhibition at 0.3 µM (B. cinerea; 72 hrs): 37 ± 21.8% | inhibition at 3 µM (B. cinerea; 48 hrs): 29.7 ± 24.8% | inhibition at 3 µM (B. cinerea; 72 hrs): 40.1 ± 20.6% | inhibition at 30 µM (B. cinerea; 48 hrs): 36.9 ± 26.7% | inhibition at 30 µM (B. cinerea; 72 hrs): 47.5 ± 27.1%
